Source: US9815851B2, “Pyrrolo carboxamides as modulators of orphan nuclear receptor RAR-related orphan receptor-gamma (RORγ, NR1F3) activity and for the treatment of chronic inflammatory and autoimmune diseases” (PHENEX PHARMACEUTICALS AG, priority 2011, dated 2017)
Where two headings read alike, the source gives them in different places.

How the values were obtained:
[1] = target: T1, RORγ ligand binding domain (LBD) (Homo sapiens, UniProt P51449); assay: TR-FRET Activity Assay (ligand sensing, RORγ-LBD / coactivator peptide interaction, LANCE); assay type: biochemical
T1 construct: made in house; host or cells: E. coli BL-21 (BL3), vector pDEST15
T1 sequence (P51449 269-508 limits assumed): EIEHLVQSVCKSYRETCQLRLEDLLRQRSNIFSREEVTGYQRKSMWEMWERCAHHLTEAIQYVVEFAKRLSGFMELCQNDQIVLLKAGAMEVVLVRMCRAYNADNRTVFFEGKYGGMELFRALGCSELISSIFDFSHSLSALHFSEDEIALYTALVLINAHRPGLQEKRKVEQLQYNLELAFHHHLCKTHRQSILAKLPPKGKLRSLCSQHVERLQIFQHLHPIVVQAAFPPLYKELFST

[2] = target: T2, RORγ (UniProt P51449); assay: RORγ Gal4 Reporter Gene Assay in 293T cells (firefly and renilla luciferase); assay type: cell-based, human
T2 sequence (P51449 1-518): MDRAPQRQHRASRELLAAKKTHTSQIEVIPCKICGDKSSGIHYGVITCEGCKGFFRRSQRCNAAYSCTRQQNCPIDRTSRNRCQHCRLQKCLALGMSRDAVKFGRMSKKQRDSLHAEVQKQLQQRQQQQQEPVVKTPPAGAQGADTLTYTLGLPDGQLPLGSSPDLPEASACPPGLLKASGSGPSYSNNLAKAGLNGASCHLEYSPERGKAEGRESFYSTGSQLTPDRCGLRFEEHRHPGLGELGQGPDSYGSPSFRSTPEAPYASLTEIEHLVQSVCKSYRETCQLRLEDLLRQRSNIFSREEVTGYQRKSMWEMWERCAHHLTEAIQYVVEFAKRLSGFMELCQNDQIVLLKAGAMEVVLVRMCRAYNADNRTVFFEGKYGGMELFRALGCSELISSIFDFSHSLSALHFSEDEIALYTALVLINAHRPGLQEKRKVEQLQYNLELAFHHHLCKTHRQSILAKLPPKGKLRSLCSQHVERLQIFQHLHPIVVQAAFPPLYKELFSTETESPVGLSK

[3] = first value of the cell FRET/FF/REN, TR-FRET activity assay, read-out: pIC50 (FRET) (converted)
[4] = second value of the cell, Gal4 reporter gene assay in 293T cells, firefly luciferase
[5] = third value of the cell, Gal4 reporter gene assay in 293T cells, renilla normalised luciferase

| Compound | IC50 [1] [nM] | pIC50 (FF) [2] | pIC50 (REN) [2] | IC50 [1, 3] [nM] | pIC50 (FF) [2, 4] | pIC50 (REN) [2, 5] |
| --- | --- | --- | --- | --- | --- | --- |
| Cc1c(C(=O)NC2CCOCC2)cc(-c2ccc(C(N)=O)c(C(C)(C)C)c2)n1CC1CCCCC1 [6/3] | 7940 | 5.1/5.9/5.7 | 5.1/5.9/5.7 | – | – | – |
| Cc1c(C(=O)NC2COC2)cc(-c2cc(C(C)(C)C)c(F)c(C(C)(C)C)c2)n1CC1CCCCC1 [1/77] | – | – | – | 200 | 6.9 | 7.0 |
| Cc1c(C(=O)N[C@H]2C[C@H](C(=O)O)C2)cc(-c2cc(C(C)(C)C)nc(C(C)(C)C)n2)n1CC1CCCCC1 [17/354] | – | – | – | 1000 | 7.0 | 7.0 |
| Cc1c(C(=O)NC2CCOCC2)cc(-c2ccc(S(=O)(=O)NC(C)(C)C)c(C(F)(F)F)c2)n1CC1CCC1 [17/215] | – | – | – | 316 | 7.5 | 7.3 |
| CC(C)(C)NS(=O)(=O)c1ccc(-c2cc(C(=O)N[C@H]3C[C@H](C(=O)O)C3)c(F)n2CC2CCCCC2)c2ccccc12 [20/8] | – | – | – | 1000 | 7.0 | 7.0 |
| CCN(C(C)(C)C)S(=O)(=O)c1ccc(-c2cc(C(=O)NC3COC3)c(C)n2CC2CCCCC2)cc1C(C)(C)C [9/6] | – | – | – | 251 | 7.7 | 7.8 |
| Cc1c(C(=O)NCCO)cc(-c2cc(C(C)(C)C)cc(C(C)(C)C)c2)n1CC1CCCCC1 [1/54] | 398 | 6.4/6.3/6.4 | 6.4/6.3/6.4 | – | – | – |
| Cc1c(C(=O)NC2COC2)cc(-c2cc(C3(C)CC3)cc(C3(C)CC3)c2)n1CC1CCCCC1 [1/80] | – | – | – | 200 | 7.5 | 7.5 |
| CC(=O)NC(C)(C)CNC(=O)c1cc(-c2cc(C(C)(C)C)c3c(c2)C2(CCO3)CC2)n(CC2CCCCC2)c1C [17/28] | – | – | – | 251 | 7.4 | 7.4 |
| Cc1c(C(=O)NC2COC2)cc(-c2cc(OCC(C)(C)C)nc(C(F)(F)F)c2)n1CC1CCCCC1 [1/16] | – | – | – | 6310 | 6.1 | 5.8 |
| Cc1c(C(=O)NCC2(C(=O)O)CCOCC2)cc(-c2cc(C(C)(C)C)cc(C3(C)CC3)c2)n1CC1CCCCC1 [17/61] | – | – | – | 1000 | 7.4 | 7.5 |
| Cc1c(C(=O)NCC2(O)CCOCC2)cc(-c2ccc(S(=O)(=O)NC(C)(C)C)c3ccccc23)n1CC1CCC1 [17/243] | – | – | – | 631 | 7.4 | 7.6 |
| Cc1c(C(=O)NCCC(C)(C)C(=O)O)cc(-c2ccc(S(=O)(=O)NC(C)(C)C(F)(F)F)c(C(F)(F)F)c2)n1CC1CCCCC1 [17/161] | – | – | – | 631 | 7.6 | 7.6 |
| Cc1c(C(=O)NC2CCOCC2)cc(-c2cc(C(C)(C)C)cc(C3(C)CC3)c2)n1CC1CCCCC1 [1/84] | 158 | 6.8/7.6/7.6 | 6.8/7.6/7.6 | – | – | – |
| Cc1c(C(=O)NCC(C)(C)O)cc(-c2ccc(S(=O)(=O)NC(C)(C)C)c3ccccc23)n1CC1CCC(F)(F)CC1 [17/278] | – | – | – | 2510 | 7.0 | 7.0 |
| Cc1c(C(=O)NC2COC2)cc(-c2ccc(C(=O)N(C)C(C)(C)C)c(C(C)(C)C)c2)n1CC1CCCCC1 [1/31] | – | – | – | 2000 | 6.4 | 6.4 |
| Cc1c(C(=O)NCc2nnn[nH]2)cc(-c2cc(C(C)(C)C)cc(C3(C)CC3)c2)n1CC1CCCCC1 [17/71] | – | – | – | 1580 | 6.9 | 6.8 |
| COCC(=O)NC(C)(C)CNC(=O)c1cc(-c2cc(C(C)(C)C)cc(C3(C)CC3)c2)n(CC2CCCCC2)c1C [17/122] | 398 | 6.4/7.6/7.5 | 6.4/7.6/7.5 | – | – | – |
| Cc1c(C(=O)NC2CCOCC2)cc(-c2ccc(S(=O)(=O)NC(C)(C)C)c3ccccc23)n1CC1CCC1 [17/242] | – | – | – | 398 | 7.5 | 7.6 |
| Cc1c(C(=O)NCCS(C)(=O)=O)cc(-c2cc(C(C)(C)C)cc(C(C)(C)C)c2)n1CC1CCCCC1 [1/1] | – | – | – | 251 | 6.6 | 6.7 |
| COC(C)(C)c1cc(-c2cc(C(=O)NC3CCOCC3)c(C)n2CC2CCCCC2)cc2c1OCCC21CC1 [17/325] | 2510 | 5.6/7.1/7.2 | 5.6/7.1/7.2 | – | – | – |
| Cc1c(C(=O)NC2CNC(=O)C23CCOCC3)cc(-c2ccc(S(=O)(=O)NC(C)(C)C)c(C(F)(F)F)c2)n1CC1CCCCC1 (stereo not drawn) [17/295] | – | – | – | 1000 | 6.6 | 6.5 |
| Cc1c(C(N)=O)cc(-c2cc(C(C)(C)C)cc(C3(C)CC3)c2)n1CC1CCCCC1 [1/89] | – | – | – | 251 | 6.3 | 6.2 |
| Cc1c(C(=O)N[C@H]2C[C@H](C(=O)O)C2)cc(-c2ccc(S(=O)(=O)NC(C)(C)C)c(C(C)(C)C)c2)n1CC1CCCCC1 [17/221] | – | – | – | 2000 | 7.1 | 7.1 |
| Cc1c(C(=O)NCC(C)(C)O)cc(-c2ccc(S(=O)(=O)N(C)C(C)(C)C)c(C(C)(C)C)c2)n1CC1CCCCC1 [9/9] | – | – | – | 501 | 7.2 | 7.3 |
| Cc1c(C(=O)NCC(O)C(F)(F)F)cc(-c2cc(C(C)(C)C)c3c(c2)C2(CCO3)CC2)n1CC1CCCCC1 (stereo not drawn) [17/23] | – | – | – | 1260 | 6.6 | 6.6 |
| Cc1c(C(=O)NCC(C)(C)CC(=O)O)cc(-c2cc(C(C)(C)C)c3c(c2)C2(CCO3)CC2)n1CC1CCCCC1 [17/19] | – | – | – | 794 | 7.5 | 7.5 |
| Cc1c(C(=O)NC2CCOCC2)cc(-c2cc(C(C)(C)O)cc(C(F)(F)F)c2)n1CC1CCCCC1 [17/306] | – | – | – | 1580 | 6.8 | 6.9 |
| Cc1c(C(=O)NCCCCC(=O)O)cc(-c2cc(C(C)(C)C)cc(C(C)(C)C)c2)n1CC1CCCCC1 [1/73] | – | – | – | 1260 | 7.2 | 7.2 |
| Cc1c(C(=O)N[C@H]2C[C@H](C(=O)O)C2)cc(-c2cc(C(F)(F)F)c3c(c2)C(C)(C)C(=O)N3C)n1CC1CCCCC1 [17/149] | – | – | – | 1260 | 6.6 | 6.6 |
